# Results published in patent publication US9174988B2, “Small molecule inhibitors of hepatitis C virus” (TRUSTEES OF BOSTON UNIVERSITY, priority 2009, dated 2015).
# Like-named read-outs stand apart in the source and are kept apart here.
# Columns and labels:
# [1] = system: HCV 2a J6/JFH-1; test: HCV infectivity assay by real-time RT-PCR of HCV RNA (EC50 at T1 and T2); format: cell-based, hepatitis C virus; conditions: for EC50's (stage not specified): HCV 2a strain J6/JFH-1 in hepatoma cells; for EC50: Hepatitis C virus
# Experimental: In this assay HCV infectivity is measured using real-time RT-PCR to monitor changes in expression of HCV 2a J6/JFH-1 RNA. Cells are incubated with test compound in the presence of HCV, followed by isolation of RNA, conversion to cDNA, and Taqman-based QPCR. As designed, a compound that inhibits HCV infectivity will reduce HCV RNA expression, leading to decreased production of the PCR amplicon, thereby reducing fluorescence, and increasing Ct.
# Huh-7.5 cells were plated the day before the assay. After allowing the cells to adhere overnight, test compound was prepared in HCV supernatant by making 1:10 serial dilutions from 100 micromolar down to 0.001 micromolar. Doses of test compound in virus were added to cells and incubated for 24 hours. The next day, cell culture media was removed from each well and replaced with same dilutions of compound in complete media were added to cells and incubated for another 48 hours for T1 timepoint. Then cells were lysed and RNA was isolated using the RNeasy kit (QIAGEN, Valencia, Calif.). Supernatant from T1 was transferred to fresh naïve cells and incubated for 24 hours. Culture media were removed from cells and replaced with complete media and incubated for 48 hours for T2 timepoint. Cells for T2 timepoint were lysed and RNA was isolated using the RNeasy kit (QIAGEN, Valencia, Calif.). DNA was generated using the Taqman reverse transcription kit (Applied Biosystems, Foster City, Calif.). Quantitative real-time polymerase chain reaction (PCR) was performed in triplicate using LightCycler RNA Amplification Kit HybProbe master mix (Roche) with Taqman MGB Probe 6FAM-[…]-MGBNFQ on a model LightCycler480 real time PCR system (Roche). Data are expressed as the mean fold change plus or minus SE of 3 replicates normalized to 100 ug total RNA. Primers used were forward […] and reverse […]. The range of activity was normalized based on measurement of total RNA. Compounds were tested in triplicate in a 6-point 1:10 dilution series starting at a nominal test concentration of 100 micromolar.
# The compounds were then studied in the same Huh7-5 cells infected with HCV 2a strain J6/JFH-1 (Kota, et al., ASSAY Drug Dev. Tech (2009) 8: 96). Huh-7.5 hepatoma cells were electroporated with RNA from HCV and the 72-hour supernatant was used as a source of infectious virus. This supernatant was combined with compounds identified as inhibitors of core dimerization. Two stages of infection were studied: early stage (T1), corresponding to the initial 72-hour culture of naïve cells infected in the presence of the inhibitor, and late stage (T2), corresponding to the second 72-hour passage through naïve cells. HCV RNA detected in T1 results from actual viral infection and replication. HCV RNA detected in T2 results from infectious virus secreted in T1 and replicated in freshly infected naïve cells. Real-time reverse-transcriptase PCR was done on RNA extracted and purified from the cells treated with increasing concentrations (0.001-100 μM) of each of the compounds. […] For comparative purposes, data for BILN2061a known inhibitor of the NS3/NS4A protease (Lamarre, et al., Nature (2003) 426: 186), is included.
# [2] = target: T1, core106 (HCV core protein domain) dimerization (Hepatitis C virus genotype 1a, UniProt P27958); test: Core106 ALPHA screen (AlphaScreen) core dimerization assay; format: binding; conditions: for inhibition of core dimerization (in words): level of activity in words, partly relative to 16
# T1 construct: a core106 protein domain was tagged with either Glutathione-S-transferase (GST) tag or a Flag peptide tag
# T1 sequence (P27958 2-106): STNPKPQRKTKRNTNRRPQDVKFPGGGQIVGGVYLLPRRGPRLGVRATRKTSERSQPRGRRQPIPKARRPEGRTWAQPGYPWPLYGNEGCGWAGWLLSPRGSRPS
# Experimental: FIG. 16b is a dose-response analysis of compound 1 (SL201). Core106 ALPHA screen assay was used for the dose-response analyses. The compound was dosed from 0 to 100 μM. The IC50 was calculated using a non-linear regression ‘Log (inhibitor) versus response’ with four points for each concentration.
# Core106 ALPHA screen assay was used for the dose response analyses. The compounds were dosed from 0 to 100 μM. The IC50 were calculated using a nonlinear regression “Log (inhibitor) vs. response” with 4 points for each concentration. The difference in IC50 for compound 1 (SL201) is due to the using two different lots of SL201 and the values are within experimental error.
# This assay employed the AlphaScreen® technology, a secondary Amplified Luminescent Proximity Homogeneous Assay as described in Kota, et al, J. Gen Virol. (2009) 90: 1319-1328, content of which is herein incorporated by reference. AlphaScreen is based on the use of photoactive donor and acceptor beads that recognize specific tags on interacting proteins (Peppard, 2003). Core106 dimerization was confirmed using AlphaScreen technology in which a core106 protein domain was tagged with either Glutathione-S-transferase (GST) tag or a Flag peptide tag. The untagged core106 protein domain was used as a model competitor in the assay. The proteins were diluted to working concentrations in ‘protein buffer’ (100 mM HEPES pH 7.5, 1 mM EDTA, 5 mM DTT, 0.1% CHAPS, 10% glycerol). The donor and acceptor beads were diluted to working concentrations in ‘bead buffer’ (20 mM HEPES pH7.5, 125 mM NaCl, 0.1% BSA, 0.1% CHAPS). GST-tagged core106 (150 nM) was incubated with 150 nM of Flag-tagged core106 for 1 h at room temperature. Anti-Flag acceptor beads (Perkin Elmer Lifesciences) were added to the proteins at a final concentration of 20 μg/ml and incubated for 1 h at room temperature. Then, Glutathione donor beads (Perkin Elmer Lifesciences) were added to the proteins at a final concentration of 20 μg/ml and incubated for 1 h. The assays were executed in a white 384 well Packard opti plate (Perkin Elmer Lifesciences) and were read on Perkin Elmer Envision.
# Uninhibited or 0% inhibition control is defined as wells containing only GST-core106 and Flag-core106. 100% inhibition control is defined as wells containing GST-core106 and Flag-core106 with core106 as an inhibitor. Test compound is wherein the test compound is analyzed.
# Compounds were tested in triplicate in a 10-point series starting at a nominal test concentration of 50 nM. For each test compound, percent inhibition was plotted against compound concentration. A four parameter equation describing a sigmoidal dose-response curve was plotted using GraphPad Prism® (GraphPad Software Inc). The reported IC50 values were generated from fitted curves by solving for the X-intercept value at the 50% inhibition level of the Y-intercept value.
# [3] = XTT cytotoxicity assay (CC50); format: cell-based; conditions: human, CC50
# Description: (§1) This assay utilized the compound XTT (2,3-bis[2-methoxy-4-nitro-5-sulfophenyl]-2H-tetrazolium-5-carboxyanilide inner salt) with addition of an electron coupling agent phenazine methosulfate (PMS) to measure mitochondrial dehydrogenases activity in living cells, e.g., Huh-7.5 cells. Dehydrogenases in mitochondria of living cells cleave the tetrazolium ring of XTT changing the color of the solution from clear to orange. As designed, compounds that reduce cell viability will reduce activity of the mitochondrial dehydrogenases, and leave a decreased orange color in solution.
# (§2) The Huh-7.5 cell line was routinely cultured in 15-cm dishes at 37 degrees C. and 95% relative humidity (RH). The growth media consisted of DMEM supplemented with 10% v/v certified fetal bovine serum, 4 mM L-glutamine, 1 mM sodium pyruvate, 1× antibiotic mix (penicillin, streptomycin, and glutamine), and 1× non-essential amino acids.
# (§3) Prior to the start of the assay 8000 cells in 100 microliter volume of colorless growth media were dispensed into each well of 96-well tissue culture-treated microtiter plates and incubated overnight at 37 degrees C. (5% CO2, 95% RH) to allow cells to adhere to the plate. The next day, 100 microliter of test compound in DMSO (1.25% final DMSO concentration) and DMSO only were added to wells. Wells with only test compound in media without cells were used to normalize the data (to account for the color a test compound may have). Next, the plates were incubated for 72 hours at 37 degrees C. (5% CO2, 95% RH). Solution of XTT-PMS was prepared in 1×PBS and added to the cells in 50 microliter volume to each well and incubated for 4 hours at 37 degrees C. (5% CO2, 95% RH). After equilibrating the plates to room temperature for 10 minutes, optical density at 450 nm and […] was measured on Biotek plate reader.
# (§4) The percent inhibition for each compound was calculated as follows: % Inhibition=((DMSO Control−Test compound)/DMSO Control)*100, wherein Test compound is defined as wells containing test compound.
# (§5) Compounds were tested in triplicate in a 7-point 1:3 dilution series starting at a nominal test concentration of 320 micromolar. For each test compound, percent inhibition was plotted against compound concentration. A four parameter equation describing a sigmoidal dose-response curve was then fitted with adjustable baseline using MicroSoft Excel software. The reported CC50 values were generated from fitted curves by solving for the X-intercept value at the 50% inhibition level of the Y-intercept value.
# [4] = system: Huh-7.5 cells; test: XTT cytotoxicity assay (CC50); format: cell-based; conditions: human, 72 h
# Description: as §1, §2, §3, §4, §5
# [5] = Huh7.5, read-out: HCV2a J6/JFH-1 T1-EC50
# [6] = Huh7.5, read-out: HCV2a J6/JFH-1 T2-EC50
# [7] = AlphaScreen, read-out: IC50 for inhibition of core dimerization
# [8] = inhibition of core dimerization, Table 3, read-out: IC50
# [9] = inhibition of core dimerization, see FIG. 17, Table 2, read-out: IC50
smiles,measurement,setting,value
C=CCN1c2ccccc2[C@]23CCC(=O)N(Cc4ccccc4)C2=NC(C(=O)OC)=C(C(=O)OC)C13 (mixture of isomers) [Compound 16],EC50's (stage not specified),[1],single digit
same,EC50,[1]; [5],2.3 µM
same,EC50,[1]; [6],3.2 µM
same,EC50,[1]; read-out: HCV 2A T1 - EC50,2.3 µM
same,EC50,[1]; read-out: HCV 2A T2 - EC50,3.2 µM
same,IC50,[2]; [7],1.4 µM
same,IC50,[2]; [8],1.4 µM
same,IC50,[2]; [9],1.4 µM
same,CC50 at 72 h,[3],127 µM
same,CC50,[4],127 µM
"COc1ccc2c(O[C@@H]3C[C@H]4C(=O)N[C@]5(C(=O)O)C[C@H]5/C=C\CCCCC[C@H](NC(=O)OC5CCCC5)C(=O)N4C3)cc(-c3csc(NC(C)C)n3)nc2c1 [BILN2061, reference compound]",EC50,[1]; [5],0.072 µM
same,EC50,[1]; [6],0.071 µM
same,CC50 at 72 h,[3],5.3 µM
COC(=O)C1=C(C(=O)OC)C2N(CCCCCn3cc(-c4ccc(OC)cc4C)nn3)c3ccccc3[C@@]23CCC(=O)N(Cc2ccccc2)C3=N1 (some centres unmarked) [Compound 27],EC50,[1]; read-out: HCV 2A T1 - EC50,1.4 µM
same,EC50,[1]; read-out: HCV 2A T2 - EC50,1.1 µM
same,IC50,[2]; [7],0.092 µM
same,inhibition of core dimerization (in words),[2],sub-micromolar
same,CC50 at 72 h,[3],> 100 µM
COC(=O)[C@@H]1C[C@@]23C(=NC(c4ccc([N+](=O)[O-])cc4)=C(C(F)(F)F)C2N(C)c2ccccc23)N1C(C)=O (some centres unmarked) [Compound 22a],EC50,[1]; read-out: HCV 2A T1 - EC50,1.3 µM
same,EC50,[1]; read-out: HCV 2A T2 - EC50,0.9 µM
same,IC50,[2]; [7],5.6 µM
same,CC50 at 72 h,[3],310 µM
COC(=O)C1=C(C(=O)OC)C(NCCCN2c3ccccc3[C@]34CCC(=O)N(Cc5ccccc5)C3=NC(C(=O)OC)=C(C(=O)OC)C24)[C@@]2(c3ccccc3)CCC(=O)N(Cc3ccccc3)C2=N1 (some centres unmarked) [SL235],EC50,[1]; read-out: HCV 2A T1 - EC50,0.088 µM
same,EC50,[1]; read-out: HCV 2A T2 - EC50,0.735 µM
same,IC50,[2]; [8],2.9 µM
same,CC50 at 72 h,[3],> 36 µM
"COC(=O)C1=C(C(=O)OC)C2N(C)c3ccc(OC)cc3[C@@]23C[C@@H](C(=O)OC)N(C(=O)CC(C)C)C3=N1 (single isomer, unassigned) [Compound 1]",EC50,[1]; [5],14.8 µM
same,EC50,[1]; [6],22.2 µM
same,EC50,[1]; read-out: HCV 2A T1 - EC50,8.8 µM
same,EC50,[1]; read-out: HCV 2A T2 - EC50,8.1 µM
same,IC50,[2]; [7],5.7 µM
same,IC50,[2]; [8],9.3 µM
same,IC50,[2]; [9],9.3 µM
same,CC50 at 72 h,[3],> 320 µM
same,CC50,[4],> 320 µM
CC#CCN1c2ccccc2[C@]23CCC(=O)N(CCOC)C2=NC(C(=O)OC)=C(C(=O)OC)C13 (mixture of isomers) [Compound 15],EC50's (stage not specified),[1],single digit
same,EC50,[1]; [5],4.9 µM
same,EC50,[1]; [6],0.7 µM
same,EC50,[1]; read-out: HCV 2A T1 - EC50,4.9 µM
same,EC50,[1]; read-out: HCV 2A T2 - EC50,0.7 µM
same,IC50,[2]; [8],2 µM
same,IC50,[2]; [9],2 µM
same,CC50 at 72 h,[3],> 320 µM
same,CC50,[4],> 320 µM
C=CCN1c2ccccc2[C@]23CCC(=O)N(Cc4cc(OC)c(OC)c(OC)c4)C2=NC(C(=O)OC)=C(C(=O)OC)C13 (mixture of isomers) [Compound 17],EC50,[1]; [5],3.8 µM
same,EC50,[1]; [6],3 µM
same,EC50,[1]; read-out: HCV 2A T1 - EC50,3.8 µM
same,EC50,[1]; read-out: HCV 2A T2 - EC50,3 µM
same,IC50,[2]; [8],2 µM
same,IC50,[2]; [9],2 µM
same,CC50 at 72 h,[3],5.3 µM
COC(=O)C1=C(C(=O)OC)C2N(CCCCCn3cc(CNC(C)=O)nn3)c3ccccc3[C@@]23CCC(=O)N(Cc2ccccc2)C3=N1 (some centres unmarked) [Compound 28],EC50,[1]; read-out: HCV 2A T1 - EC50,26.2 µM
same,EC50,[1]; read-out: HCV 2A T2 - EC50,56.2 µM
same,IC50,[2]; [8],0.341 µM
same,inhibition of core dimerization (in words),[2],sub-micromolar
same,CC50 at 72 h,[3],150 µM
